Measured values as given in patent US6869951B1, “Method of changing conformation of a matrix metalloproteinase” (Pharmacia Corporation, priority 1999, dated 2005).
Where a name gives a salt, the structure may show the parent alone.

What was measured:
[1] = molecular target: T1, MMP-8 catalytic domain (residues 85-242) (Homo sapiens, UniProt P22894); test: X-ray crystallography of MMP-8 catalytic domain inhibitor complexes; conditions: X-ray crystal structure of the complex, IX, XI relative to compound XII
T1 construct: The catalytic domain (residues 85-242) of MMP-8, neutrophil collagenase, folds into a compact globular structure; made in house
T1 sequence (P22894 105-262): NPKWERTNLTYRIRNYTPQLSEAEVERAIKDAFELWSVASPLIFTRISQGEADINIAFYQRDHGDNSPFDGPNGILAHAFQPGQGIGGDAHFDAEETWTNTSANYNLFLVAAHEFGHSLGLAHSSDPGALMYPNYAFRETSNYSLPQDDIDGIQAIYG
Description: The MMP-8 catalytic domain was cloned by PCR amplification from a cDNA contruct of full-length MMP-8. The amplified DNA was cloned into NdeI/HindIII restriction sites in an in-house pRec expression vector. Protein was expressed in a bacterial expression system by induction with nalidixic acid. Recombinant protein was expressed primarily as inclusion bodies. Purified protein was recovered in high yield following ion exchange chromatography of denatured protein.
Slow dehydration of the drop leads to formation of single crystals of the inhibitor complex. Details are below.
12 mg/ml MMP-8 in 10 mM MES pH 6.0, 100 mM NaCl, 5 mM CaCl2 pre-incubated with 1 mM inhibitor for 10 minutes at ambient temperature.
4 ul of the protein-inhibitor complex mixed with 6.8 ul 10% PEG6000 and 0.2 M MES pH 6.0
0.8 to 2.5 M sodium/potassium phosphate pH 6.0 (not mixed with protein/inhibitor/PEG drop).
Intensities from crystals of the enzyme inhibitor complexes were measured on a MAR image plate at −140° C. X-rays were generated from a rotating anode generator using a Cu target. The CuKα X-rays were focused onto the samples using long Pt and Ni mirrors.
The data were integrated and scaled using the program DENZO (Otwinowski, Z. and Minor W. in Proceedings of CCP4 Study Weekend: Data Collection and Processing (eds. Sawyer, L., Issacs, N., and Bailey, S.) pp. 56-62 (SERC Daresbury Laboratories, Warrington, UK 1993)).
Standard simulated annealing protocols in the program XPLOR (Brünger, A. T. (1993). XPLOR (Version 3.1): A System for X-ray Crystallography and NMR (Yale University Press, New Haven, Conn.)) were used.
New electron density at the expected active site could in all cases be interpreted with flexible, three-dimensional models of the inhibitors as generated in the program […] (Biosym Technologies (1993). Insight II User Guide, Version 2.2.0. San Diego). Solvent positions were also identified from these electron density maps and side chains of the protein were also sometimes manually adjusted.
Final refinements of the structure were carried out with inclusion of inhibitor and solvent ligands. In the refinements, 10% of the data was set aside for cross validation by evaluation of Rfree (A. T. Brünger, “Free R Value: a novel statistical quantity for accessing the accuracy of crystal structures,” Nature 355, 472-475 (1992)).

[2] = test system: cancer-specific antigens; conditions: meta analysis of Phase I/II studies; advanced, treatment-refractory solid tumor cancers (colorectal, pancreatic, ovarian, prostate); cited from earlier work
[3] = clinical trials in cancer patients; cited from earlier work

SMILES | effect on conformation of the amino acid backbone of the S1' pocket of MMP-8 [1] | effect on rise of cancer-specific antigens used as surrogate markers for biological activity [2] | most common drug-related toxicity [3]
CCCCCCc1ccc(C(=O)Nc2ccc(S(=O)(=O)N(CCN3CCOCC3)[C@@H](C(=O)NO)C(C)C)cc2)cc1 [Compound XI, (R)-4-hexyl-N-[4-[[[1-(hydroxyamino)-carbonyl]-2-methylpropyl][2-(4-morpholinyl)ethyl]amino]sulfonyl]-phenylbenzamide, monohydrochloride] | causes the backbone to deform significantly |  | 
CCCCCc1ccc(C(=O)Nc2ccc(S(=O)(=O)N(CCN3CCOCC3)[C@@H](C(=O)O)C(C)C)cc2)cc1 [IX, N-[2-(4-morpholinyl)ethyl]-N-[[4-[(4-pentylbenzoyl)amino]phenyl]sulfonyl]-D-valine] | causes the backbone to deform significantly |  | 
CCCc1ccc(C(=O)Nc2ccc(S(=O)(=O)N[C@@H](C(=O)O)C(C)C)cc2)cc1 [XII] | essentially no effect on the conformation of the amino acid backbone |  | 
CCCCCc1ccc(C(=O)Nc2ccc(S(=O)(=O)N(CCN3CCOCC3)[C@@H](C(=O)NO)C(C)C)cc2)cc1 [Compound X, R-N-[4-[[[1-(hydroxyamino)carbonyl]-2-methylpropyl][2-(4-morpholinyl)ethyl]amino]-sulfonyl]phenyl]-4-pentylbenzamide, monohydrochloride] | causes the backbone to deform significantly |  | 
CNC(=O)[C@@H](NC(=O)[C@H](CC(C)C)[C@H](O)C(=O)NO)C(C)(C)C [marimastat] |  | dose-related reduction in the rise of cancer-specific antigens | musculoskeletal pain and stiffness
CC(O)(CS(=O)(=O)c1ccc(Oc2ccccc2)cc1)C(=O)NO (stereo not shown) [Compound XIV, reference compound] | essentially no effect on the conformation of the amino acid backbone |  | 
